Experimental data: patent US9573954B2, “Pyrazolopyrimidine compounds” (University Health Network, priority 2012, dated 2017)
Read-outs that look alike come from different tables or passages of the source.

Legend:
[1] = test system: colon cancer cells (HCT116); test: Cancer cell line growth inhibition, Sulforhodamine B assay, HCT116; type: cell-based; conditions: read-out: Cancer Cell Line GI50 Range HCT116
Procedure: (§1) Breast cancer cells (MDA-MB-231 and MDA-MB-468), colon cancer cells (HCT116) and ovarian cancer cells (PA-1 and OVCAR-3) were seeded (1000 to 4000 in 80 μl per well depending on the cell growth rate) into 96 well plates 24 hours before compound overlay. Compounds were prepared as 10 mM stock solutions in 100% DMSO which were diluted with DMEM (Dulbecco's Modified Eagle's Medium) cell growth Medium (Invitrogen, Burlington, ON, Canada) containing 10% FBS (Fetal Bovine Serum) to concentrations ranging from 50 nM to 250 μM. Aliquots (20 μl) from each concentration were overlaid to 80 μl of the pre-seeded cells in the 96 well plates to make final concentrations of 10 nM to 50 μM. The cells were cultured for 5 days before the Sulforhodamine B assay (SRB) was performed to determine the compound's cell growth inhibition activity.
(§2) Sulforhodamine B (purchased from Sigma, Oakville, ON, Canada) is a water-soluble dye that binds to the basic amino acids of the cellular proteins. Thus, colorimetric measurement of the bound dye provides an estimate of the total protein mass that is related to the cell number. the cells are fixed in situ by gently aspirating off the culture media and adding 50 μl ice cold 10% Trichloroacetic Acid (TCA) per well and incubate at 4° C. for 30-60 min, The plates are washed with H2O five times and allowed to air dry for 5 min. Addition of 50 μl 0.4% (w/v) SRB solution in 1% (v/v) acetic acid to each well and incubation for 30 min at RT completes the staining reaction. Following staining, plates are washed four times with 1% acetic acid to remove unbound dye and then allowed to air dry for 5 min. The stain is solubilized with 100 μl of 10 mM Tris pH 10.5 per well. Absorbance is read at 570 nm.
(§3) The percentage (%) of relative growth inhibition was calculated by comparing to DMSO treated only cells (100%). GI50's were determined for compounds with cytotoxic activity. The GI50 was calculated using GraphPad PRISM software (GraphPad Software, Inc., San Diego, Calif., USA).
(§4) In Table 1 below, GI50 value ranges for compound examples against breast cancer cell lines (MDA-MB-468), colon cancer cell lines (HCT116) and ovarian cancer cell lines (PA-1) are given.
In Table 2 below, GI50 value ranges for compound examples against breast cancer cell lines (MDA-MB-231), colon cancer cell lines (HCT116) and ovarian cancer cell lines (PA-1) are given.
(§5) In Table 3 below, GI50 value ranges for compound examples against breast cancer cell lines (MDA-MB-468), colon cancer cell lines (HCT116) and ovarian cancer cell lines (OVCAR-3) are given.

[2] = test system: breast cancer cells (MDA-MB-468); test: Cancer cell line growth inhibition, Sulforhodamine B assay, MDA-MB-468; type: cell-based; conditions: read-out: Cancer Cell Line GI50 Range MDA-MB-468
Procedure: as §1, §2, §3, §4, §5

human TTK = target: T1, human TTK (Homo sapiens, UniProt P33981); test: TTK inhibition assay (indirect ELISA); type: biochemical; conditions: 100 μM ATP; read-out: TTK IC50 Range
T1 construct: Active TTK was purchased from Invitrogen as an amino terminal GST fusion of full length human TTK; purchased Invitrogen
T1 sequence (P33981 1-857): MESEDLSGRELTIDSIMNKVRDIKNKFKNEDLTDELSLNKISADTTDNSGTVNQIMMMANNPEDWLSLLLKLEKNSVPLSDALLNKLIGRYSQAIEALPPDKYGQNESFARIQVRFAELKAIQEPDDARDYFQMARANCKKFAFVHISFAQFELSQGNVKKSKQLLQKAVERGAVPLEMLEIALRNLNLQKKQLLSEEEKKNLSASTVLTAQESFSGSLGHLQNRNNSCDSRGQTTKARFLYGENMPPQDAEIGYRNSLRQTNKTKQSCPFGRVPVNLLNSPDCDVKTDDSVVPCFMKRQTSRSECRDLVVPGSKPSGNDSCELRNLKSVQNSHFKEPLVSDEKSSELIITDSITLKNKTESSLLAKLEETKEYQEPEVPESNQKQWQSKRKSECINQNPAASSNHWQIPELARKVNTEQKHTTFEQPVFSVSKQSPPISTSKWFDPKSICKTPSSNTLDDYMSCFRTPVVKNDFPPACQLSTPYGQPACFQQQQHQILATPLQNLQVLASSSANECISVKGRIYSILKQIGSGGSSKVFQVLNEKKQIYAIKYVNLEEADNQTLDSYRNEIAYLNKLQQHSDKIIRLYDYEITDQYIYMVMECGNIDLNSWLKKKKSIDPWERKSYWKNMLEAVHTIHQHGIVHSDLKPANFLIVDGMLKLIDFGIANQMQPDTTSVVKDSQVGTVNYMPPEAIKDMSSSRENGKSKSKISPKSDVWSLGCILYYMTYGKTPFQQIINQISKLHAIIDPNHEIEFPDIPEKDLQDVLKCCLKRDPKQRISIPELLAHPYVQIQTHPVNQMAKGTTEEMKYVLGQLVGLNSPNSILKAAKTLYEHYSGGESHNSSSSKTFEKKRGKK
Procedure: Active TTK was purchased from Invitrogen as an amino terminal GST fusion of full length human TTK.
TTK activity was measured using an indirect ELISA detection system.
Compounds were pre-incubated in the presence of enzyme for 5 minutes prior to addition of ATP and the activity remaining quantified using the above described activity assay. The % Inhibition of a compound was determined using the following formula; % Inhibition=100×(1−(experimental value−background value)/(high activity control−background value)). The IC50 value was determined using a non-linear 4 point logistic curve fit (XLfit4, IDBS) with the formula; (A+(B/(1+((x/C)^D)))), where A=background value, B=range, C=inflection point, D=curve fit parameter.

[3] = test system: ovarian cancer cells (OVCAR-3); test: Cancer cell line growth inhibition, Sulforhodamine B assay, OVCAR-3; type: cell-based; conditions: read-out: Cancer Cell Line GI50 Range OVCAR-3
Procedure: as §1, §2, §3, §5

[4] = Homo sapiens, HCT-116, HCT116 colon cancer cell line
[5] = Homo sapiens, MDA-MB-468, MDA-MB-468 breast cancer cell line
[6] = Homo sapiens, OVCAR-3, OVCAR-3 ovarian cancer cell line
[7] = MDA-MB-468 breast cancer cell line
[8] = OVCAR-3 ovarian cancer cell line

Compound | GI50 [1, 4] [nM] | GI50 [2, 5] [nM] | IC50 (human TTK) [nM] | GI50 [3, 6] [nM] | GI50 ([1]; HCT116 colon cancer cell line) [nM] | GI50 [2, 7] [nM] | GI50 [3, 8] [nM]
Cc1cc(-c2cnn3c(NC[C@H]4C[C@@](C)(O)C4)cc(NC4CCCC4)nc23)ccc1C(=O)NC1CC1 [Example C44, 4-(5-(cyclopentylamino)-7-((((1s,3s)-3-hydroxy-3-methylcyclobutyl)methyl)amino)pyr-azolo[1,5-a]pyrimidin-3-yl)-N-cyclopropyl-2-methylbenzamide] | ≤ 100 | ≤ 100 | < 100 | ≤ 100 | – | – | –
Cc1cc(-c2cnn3c(NCCN4CCC(F)CC4)cc(Oc4cccc(F)c4F)nc23)ccc1C(=O)NC1CC1 [Example C47, N-cyclopropyl-4-(5-(2,3-difluorophenoxy)-7-((2-(4-fluoropiperidin-1-yl)ethyl)amino)pyrazolo[1,5-a]pyrimidin-3-yl)-2-methylbenzamide] | ≤ 100 | ≤ 100 | < 100 | ≤ 100 | – | – | –
Cc1cc(-c2cnn3c(NCc4cccnc4)cc(NC4CCOCC4)nc23)ccc1C(=O)NC1CC1 [Example C49] | 100 to 500 | 100 to 500 | < 100 | 100 to 500 | – | – | –
Cc1cc(-c2cnn3c(NCCN4CCOCC4)cc(Oc4cccnc4)nc23)ccc1C(=O)NC1CC1 [Example C51] | 100 to 500 | 100 to 500 | < 100 | 100 to 500 | – | – | –
Cc1cc(-c2cnn3c(NCc4cccnc4)cc(OC4CCOCC4)nc23)ccc1C(=O)NC1CC1 [Example C52] | 100 to 500 | 100 to 500 | < 100 | > 500 | – | – | –
Cc1cc(-c2cnn3c(NCc4ccncc4)cc(NC4CCOCC4)nc23)ccc1C(=O)NC1CC1 [Example C54] | – | – | < 100 | – | 100 to 500 | 100 to 500 | 100 to 500
Cc1cc(-c2cnn3c(NCC4CCOCC4)cc(Oc4cncc(F)c4)nc23)ccc1C(=O)NC1CC1 [Example C56] | ≤ 100 | ≤ 100 | < 100 | ≤ 100 | – | – | –
Cc1cc(-c2cnn3c(NCCCn4ccnc4)cc(Oc4ccccc4)nc23)ccc1C(=O)NC1CC1 [Example C61] | ≤ 100 | ≤ 100 | < 100 | ≤ 100 | – | – | –
Cc1cc(-c2cnn3c(NC[C@H]4CCCO4)cc(NC4CCCC4)nc23)ccc1C(=O)NC1CC1 [Example C62] | 100 to 500 | 100 to 500 | < 100 | 100 to 500 | – | – | –
Cc1cc(-c2cnn3c(NCC4CCOCC4)cc(N4C5CCC4CC(O)C5)nc23)ccc1C(=O)NC1CC1 (stereo not shown) [Example C66] | 100 to 500 | 100 to 500 | < 100 | 100 to 500 | – | – | –
Cc1cc(-c2cnn3c(NC[C@H]4CCCO4)cc(NC4CCCC4)nc23)ccc1C(=O)NC1CC1 [Example C72] | – | – | < 100 | – | ≤ 100 | ≤ 100 | 100 to 500
Cc1cc(-c2cnn3c(NCC4CCOCC4)cc(NCc4cccnc4)nc23)ccc1C(=O)NC1CC1 [Example C74] | 100 to 500 | 100 to 500 | < 100 | > 500 | – | – | –
Cc1cc(-c2cnn3c(NCCN4CCOCC4)cc(NC4CCCC4)nc23)ccc1C(=O)NC1CC1 [Example C77] | 100 to 500 | 100 to 500 | < 100 | 100 to 500 | – | – | –
COc1cccc(Oc2cc(NCCN3CCOCC3)n3ncc(-c4ccc(C(=O)NC5CC5)c(C)c4)c3n2)c1 [Example C85] | 100 to 500 | 100 to 500 | < 100 | 100 to 500 | – | – | –

Now from value to molecule:

GI50 [1, 4] [nM] | GI50 [2, 5] [nM] | IC50 (human TTK) [nM] | GI50 [3, 6] [nM] | GI50 ([1]; HCT116 colon cancer cell line) [nM] | GI50 [2, 7] [nM] | GI50 [3, 8] [nM] | Compound
≤ 100 | ≤ 100 | < 100 | ≤ 100 | – | – | – | Cc1cc(-c2cnn3c(NC[C@@H]4CCOC4)cc(N[C@H]4CCCC[C@H]4O)nc23)ccc1C(=O)NC1CC1 [Example C36, N-cyclopropyl-4-(5-(((1S,2R)-2-hydroxycyclohexyl)amino)-7-((((S)-tetrahydrofuran-3-yl)methyl)amino)pyrazolo[1,5-a]pyrimidin-3-yl)-2-methylbenzamide]
100 to 500 | 100 to 500 | < 100 | 100 to 500 | – | – | – | Cc1cc(-c2cnn3c(NCC4CCOCC4)cc(NCC4CCOCC4)nc23)ccc1C(=O)NC1CC1 [Example C57]
≤ 100 | 100 to 500 | < 100 | 100 to 500 | – | – | – | Cc1cc(-c2cnn3c(NCC4CCOCC4)cc(N(C)C4CCCC4)nc23)ccc1C(=O)NC1CC1 [Example C58]
100 to 500 | 100 to 500 | < 100 | 100 to 500 | – | – | – | Cc1cc(-c2cnn3c(NCC4CCOCC4)cc(Nc4cccnc4)nc23)ccc1C(=O)NC1CC1 [Example C59]
100 to 500 | 100 to 500 | < 100 | > 500 | – | – | – | Cc1cc(-c2cnn3c(NCC4CCOCC4)cc(NCC4COC4)nc23)ccc1C(=O)NC1CC1 [Example C71]
100 to 500 | 100 to 500 | < 100 | 100 to 500 | – | – | – | Cc1cc(-c2cnn3c(NCC4CCOCC4)cc(N[C@H](CO)C(C)(C)C)nc23)ccc1C(=O)NC1CC1 [Example C78]
> 500 | > 500 | < 100 | > 500 | – | – | – | Cc1cc(-c2cnn3c(NCC4CCOCC4)cc(N[C@H]4COCC[C@@H]4O)nc23)ccc1C(=O)NC1CC1 [Example C79]
100 to 500 | 100 to 500 | < 100 | 100 to 500 | – | – | – | Cc1cc(-c2cnn3c(NCC4CCOCC4)cc(N[C@@H]4CCCOC4)nc23)ccc1C(=O)NC1CC1 [Example C82]
≤ 100 | 100 to 500 | < 100 | 100 to 500 | – | – | – | Cc1cc(-c2cnn3c(NCC4CCOCC4)cc(N[C@H]4CCCOC4)nc23)ccc1C(=O)NC1CC1 [Example C83]
100 to 500 | 100 to 500 | < 100 | > 500 | – | – | – | Cc1cc(-c2cnn3c(NCC4CCOCC4)cc(N4CCOC[C@H]4CO)nc23)ccc1C(=O)NC1CC1 [Example C87]
> 500 | 100 to 500 | < 100 | > 500 | – | – | – | Cc1cc(-c2cnn3c(NCC4CCOCC4)cc(NC4(CO)CCOCC4)nc23)ccc1C(=O)NC1CC1 [Example C88]
